Results reported in ChEMBL document CHEMBL4825709 (J Med Chem, 2021).
Converted amounts (≈) assume the structure as drawn.

Assays:
physchem [1] = conditions: FaSSIF, pH 6.5
[2] = Volume of distribution at steady state in Wistar Han rat at 1 mg/kg, iv measured up to 24 hrs by LC-MS/MS analysis; format: ADME, organism-based; conditions: in vivo, read-out: Vdss
[3] = AUC (0 to infinity) in Wistar Han rat at 1 mg/kg, iv measured up to 24 hrs by LC-MS/MS analysis; format: ADME, organism-based; set-up: route intravenous, dose 1 mg/kg, time <=24; conditions: in vivo
[4] = Solubility of compound in pH 7.4 by charged aerosol detection method; format: physicochemical; conditions: buffer
[5] = Oral bioavailability in Wistar Han rat at 3 mg/kg measured up to 24 hrs by LC-MS/MS analysis; format: ADME, organism-based; conditions: in vivo
[6] = Half life in Wistar Han rat at 1 mg/kg, iv measured up to 24 hrs by LC-MS/MS analysis; format: ADME, organism-based; conditions: in vivo
[7] = Tmax in Wistar Han rat at 3 mg/kg, po measured up to 24 hrs by LC-MS/MS analysis; format: ADME, organism-based; conditions: in vivo
[8] = Cmax in Wistar Han rat at 3 mg/kg, po measured up to 24 hrs by LC-MS/MS analysis; format: ADME, organism-based; set-up: route oral, dose 3 mg/kg, time <=24; conditions: in vivo
[9] = Intrinsic clearance in dog hepatocytes at 0.5 uM measured after 120 mins by LC-MS/MS analysis; format: ADME, cell-based, Canis lupus familiaris, Hepatocyte; conditions: 2 h
[10] = Intrinsic clearance in human hepatocytes at 0.5 uM measured after 120 mins by LC-MS/MS analysis; format: ADME, cell-based, Hepatocyte; conditions: 2 h
[11] = AUC (0 to infinity) in Wistar Han rat at 3 mg/kg, po measured up to 24 hrs by LC-MS/MS analysis; format: ADME, organism-based; set-up: route oral, dose 3 mg/kg, time <=24; conditions: in vivo
[12] = buffer, pH 7.4
[13] = Intrinsic clearance in rat hepatocytes at 0.5 uM measured after 60 mins by LC-MS/MS analysis; format: ADME, cell-based, Hepatocyte; conditions: 1 h
[14] = Clearance in Wistar Han rat at 1 mg/kg, iv measured up to 24 hrs by LC-MS/MS analysis; format: ADME, organism-based; conditions: in vivo
physchem [15] = conditions: buffer, pH 7.4, logD
physchem [16] = assay: physchem

logD (physchem [15]) | solubility (physchem [16]) | SMILES | further results
– | – | CNC(=O)[C@H](C1CCOCC1)N(CC(c1ccccc1)c1ccccn1)C(=O)c1cc(C)c(=O)n(C)c1 (stereo in doubt) | solubility at 16 h (physchem [1]): > 1000 µg/mL; Vd [2]: 0.6 L/kg; AUC(0-inf) [3]: 340 ng·h/mL; solubility ([4]; read-out: solubility): > 231 µg/mL; bioavailability [5]: 16%; half-life [6]: 11.4 min; Tmax [7]: 15 min; Cmax [8]: 398 nM; CLH [9]: < 0.65 mL/min/g; CLH [10]: < 0.45 mL/min/g; AUC(0-inf) [11]: 162 ng·h/mL; logD [12]: 2.9; CLH [13]: 3.13 mL/min/g; clearance [14]: 50 mL/min/kg
4.9 | 161 µg/mL (≈ 341 µM) | CNC(=O)C(C1CCC1)N(CC(c1ccccc1)c1ccccc1)C(=O)c1cc(C)c(=O)n(C)c1 (configuration not stated) | –
– | > 163 µg/mL | CNC(=O)[C@H](C)N(CC(c1ccccc1)c1ccccc1)C(=O)c1cc(C)c(=O)n(C)c1 | –
5.1 | 108 µg/mL (≈ 243 µM) | Cc1cc(C(=O)N(CC(c2ccccc2)c2ccccc2)C(C)C2CCCO2)cn(C)c1=O (configuration not stated) | solubility at 16 h (physchem [1]): 21 µg/mL (≈ 47.2 µM)
5.4 | 93 µg/mL (≈ 196 µM) | CNC(=O)C(N(CC(c1ccccc1)c1ccccc1)C(=O)c1cc(C)c(=O)n(C)c1)C(C)(C)C (configuration not stated) | solubility at 16 h (physchem [1]): 2 µg/mL (≈ 4.22 µM)
– | – | CNC(=O)C(C1CCOC1)N(CC(c1ccccc1)c1ccccc1)C(=O)c1cc(C)c(=O)n(C)c1 (stereo in doubt; 23) | solubility [4]: > 181 µg/mL
– | – | CNC(=O)C(C)N(CC(c1ccccc1)c1ccccn1)C(=O)c1cc(C)c(=O)n(C)c1 (stereo in doubt; 56) | logD [12]: 2.7
1.7 | – | CNC(=O)C(C)N(CC(c1ccccc1)c1ccncc1)C(=O)c1cc(C)c(=O)n(C)c1 (configuration not stated) | –
– | – | CNC(=O)[C@@H](C1CCOCC1)N(CC(c1ccccc1)c1ccccn1)C(=O)c1cc(C)c(=O)n(C)c1 (stereo in doubt; 63) | logD [12]: 2.9
4 | – | CNC(=O)C(C1CCOC1)N(CC(c1ccccc1)c1ccccc1)C(=O)c1cc(C)c(=O)n(C)c1 (racemic) | solubility ([4]; read-out: solubility): > 138 µg/mL
2.8 | – | CNC(=O)[C@@H](C1CCOCC1)N(CC(c1ccccc1)c1ccccn1)C(=O)c1cc(C)c(=O)n(C)c1 (stereo in doubt; 61) | –
4.1 | > 239 µg/mL | Cc1cc(C(=O)N(CCN2CCOCC2)CC(c2ccccc2)c2ccccc2)cn(C)c1=O | –
4.7 | – | CNC(=O)C1(N(CC(c2ccccc2)c2ccccc2)C(=O)c2cc(C)c(=O)n(C)c2)CCCC1 | solubility at 16 h (physchem [1]): 132 µg/mL (≈ 280 µM)
– | – | CNC(=O)C(C1CCOC1)N(CC(c1ccccc1)c1ccccc1)C(=O)c1cc(C)c(=O)n(C)c1 (stereo in doubt; 21) | solubility at 16 h (physchem [1]): 987 µg/mL (≈ 2020 µM); solubility [4]: > 143 µg/mL
2.4 | – | CNC(=O)CN(CC(CC1CCOCC1)c1ccccc1)C(=O)c1cc(C)c(=O)n(C)c1 (configuration not stated) | –
– | – | CNC(=O)C(C)N(CC(c1ccccc1)c1ccccn1)C(=O)c1cc(C)c(=O)n(C)c1 (stereo in doubt; 57) | logD [12]: 2.6
1.45 | – | CNC(=O)CN(CC(c1ccccc1)n1ccnc1)C(=O)c1cc(C)c(=O)n(C)c1 (configuration not stated) | –
3.3 | 111 µg/mL (≈ 248 µM) | CNC(=O)C(C)N(CC(c1ccccc1)c1ccccc1)C(=O)c1cc(OC)c(=O)n(C)c1 (configuration not stated) | solubility at 16 h (physchem [1]): 661 µg/mL (≈ 1480 µM)
2.9 | – | CNC(=O)C(C)N(CC(O)(c1ccccc1)c1ccccc1)C(=O)c1cc(C)c(=O)n(C)c1 (configuration not stated) | –
– | > 211 µg/mL | CNC(=O)[C@@H](C)N(CC(c1ccccc1)c1ccccc1)C(=O)c1cc(C)c(=O)n(C)c1 | –
2.8 | – | CNC(=O)[C@H](C1CCOCC1)N(CC(c1ccccc1)c1ccccn1)C(=O)c1cc(C)c(=O)n(C)c1 (stereo in doubt; 62) | –
4.4 | > 194 µg/mL | CNC(=O)C1(N(CC(c2ccccc2)c2ccccc2)C(=O)c2cc(C)c(=O)n(C)c2)CC1 | solubility at 16 h (physchem [1]): 819 µg/mL (≈ 1850 µM)
2.8 | – | CCC(CN(CC(=O)NC)C(=O)c1cc(C)c(=O)n(C)c1)c1ccccc1 (configuration not stated) | –
4.1 | – | CNC(=O)C(C)N(CC(c1ccccc1)c1ccccc1)C(=O)c1cn(C)c(=O)c(C)n1 (configuration not stated) | solubility ([4]; read-out: solubility): > 102 µg/mL
5.7 | 114 µg/mL (≈ 265 µM) | CNC(=O)CN(CC(c1ccccc1)c1ccccc1)C(=O)c1cc(C)c(OC)c(C)c1 | –

logD (physchem [15]) | solubility (physchem [16]) | SMILES | further results
4.4 | 91 µg/mL (≈ 199 µM) | CNC(=O)C(C1CC1)N(CC(c1ccccc1)c1ccccc1)C(=O)c1cc(C)c(=O)n(C)c1 (configuration not stated) | solubility at 16 h (physchem [1]): 30 µg/mL (≈ 65.6 µM)
2.2 | – | CNC(=O)CN(CC(C)c1ccccc1)C(=O)c1cc(C)c(=O)n(C)c1 (configuration not stated) | –
3.6 | > 170 µg/mL | CCNC(=O)C(C)N(CC(c1ccccc1)c1ccccc1)C(=O)c1c[nH]c(=O)c(C)c1 (configuration not stated) | –
3.7 | 213 µg/mL (≈ 494 µM) | CNC(=O)C(C)N(CC(c1ccccc1)c1ccccc1)C(=O)c1cc(C)c(=O)n(C)c1 (configuration not stated) | –
3.4 | 163 µg/mL (≈ 390 µM) | CNC(=O)CN(CC(c1ccccc1)c1ccccc1)C(=O)c1cc(C)c(=O)n(C)c1 | –
3.9 | – | CCNC(=O)C(C)N(CC(c1ccccc1)c1ccccc1)C(=O)C1CCC(=O)N(C)C1 (configuration not stated) | –
5.5 | > 186 µg/mL | COCC(COC)N(CC(c1ccccc1)c1ccccc1)C(=O)c1cc(C)c(=O)n(C)c1 | solubility at 16 h (physchem [1]): 78 µg/mL (≈ 174 µM)
4.3 | – | CCC(C(=O)NC)N(CC(c1ccccc1)c1ccccc1)C(=O)c1cc(C)c(=O)n(C)c1 (configuration not stated) | solubility at 16 h (physchem [1]): 150 µg/mL (≈ 337 µM)
2.1 | – | CNC(=O)CN(CC(c1ccccc1)C1CCOCC1)C(=O)c1cc(C)c(=O)n(C)c1 (configuration not stated) | –
2.3 | – | CNC(=O)C(C)N(CC(c1ccccc1)c1ccccn1)C(=O)c1cc(C)c(=O)n(C)c1 (stereo in doubt; 50) | –
3.7 | > 169 µg/mL | CCNC(=O)C(C)N(CC(c1ccccc1)c1ccccc1)C(=O)c1ccc(=O)n(C)c1 (configuration not stated) | –
4.9 | 105 µg/mL (≈ 228 µM) | CNC(=O)C(C(C)C)N(CC(c1ccccc1)c1ccccc1)C(=O)c1cc(C)c(=O)n(C)c1 (configuration not stated) | solubility at 16 h (physchem [1]): 60 µg/mL (≈ 131 µM)
4.9 | > 150 µg/mL | CNC(=O)C1(N(CC(c2ccccc2)c2ccccc2)C(=O)c2cc(C)c(=O)n(C)c2)CCC1 | –
5.4 | > 206 µg/mL | Cc1cc(C(=O)N(CC(c2ccccc2)c2ccccc2)C(C)CN2CCOCC2)cn(C)c1=O (configuration not stated) | solubility at 16 h (physchem [1]): 91 µg/mL (≈ 192 µM)
3.6 | > 142 µg/mL | CNC(=O)C(C1COC1)N(CC(c1ccccc1)c1ccccc1)C(=O)c1cc(C)c(=O)n(C)c1 (configuration not stated) | –
1.9 | – | CNC(=O)C(C)N(CC(c1ccccc1)c1cccnc1)C(=O)c1cc(C)c(=O)n(C)c1 (configuration not stated) | –
– | – | CNC(=O)C(C)N(CC(c1ccccc1)c1ccccn1)C(=O)c1cc(C)c(=O)n(C)c1 (stereo in doubt; 51) | logD [12]: 2.1
4.3 | – | CCNC(=O)C(C)N(CC(c1ccccc1)c1ccccc1)C(=O)c1cc(C)c(=O)n(C)c1 (configuration not stated) | –
2.7 | – | CCOC(CN(CC(=O)NC)C(=O)c1cc(C)c(=O)n(C)c1)c1ccccc1 (configuration not stated) | –
3.3 | – | CNC(=O)CN(CC(c1ccccc1)C(C)C)C(=O)c1cc(C)c(=O)n(C)c1 (configuration not stated) | –
2.9 | > 175 µg/mL | Cc1cc(C(=O)N(CC(N)=O)CC(c2ccccc2)c2ccccc2)cn(C)c1=O | –
– | – | CNC(=O)C(C1CCOC1)N(CC(c1ccccc1)c1ccccc1)C(=O)c1cc(C)c(=O)n(C)c1 (stereo in doubt; 22) | solubility [4]: > 185 µg/mL
3.7 | > 242 µg/mL | CNC(=O)C(C)(C)N(CC(c1ccccc1)c1ccccc1)C(=O)c1cc(C)c(=O)n(C)c1 | –
4.8 | > 157 µg/mL | Cc1cc(C(=O)N(CC(c2ccccc2)c2ccccc2)C(C)C#N)cn(C)c1=O (configuration not stated) | solubility at 16 h (physchem [1]): 13 µg/mL (≈ 32.5 µM)
– | – | CNC(=O)C(C1CCOC1)N(CC(c1ccccc1)c1ccccc1)C(=O)c1cc(C)c(=O)n(C)c1 (stereo in doubt; 24) | solubility [4]: > 153 µg/mL
